Measured values taken from patent publication US20100048722A1, “FORMATION OF ACCUMBENS GluR2-LACKING AMPA RECEPTORS MEDIATES […] COCAINE CRAVING” (ROSALIND FRANKLIN UNIVERSITY OF MEDICINE AND SCIENCE, priority 2008, published 2010).
Read-outs that look alike come from different tables or passages of the source.

System: GluR2-lacking AMPA receptors
Settings: injection into accumbens 15 min before extinction test
Description: Male rats were trained to nose-poke (biochemical and electrophysiology experiments) or lever-press (Naspm accumbens injections experiment) for 6-h/day for 10-12 days; each cocaine infusion was paired with a tone-light or light cue. After self-administration training, the rats were tested for cue-induced cocaine-seeking after 1 or 45 withdrawal days. During testing, lever or nose-poke responding led to contingent presentations of the cue previously paired with cocaine infusions, but not cocaine. Responding on the previously active lever or hole was the operational measure of cocaine-seeking.
The rats were anesthetized using isoflurane gas (Henry Schein, Melville, N.Y.) and flunixin meglumine was administered before surgery (2 mg/kg, i.p.) as an analgesic. A silastic catheter was inserted into the right auricle through the external jugular vein, passed under the skin and fixed in the mid-scapular region. The rats recovered from surgery for at least seven days prior to beginning self-administration training sessions. During this time, catheters were flushed every 24-48 h with sterile 0.9% saline. […]

Cl.Cl.Cl.NCCCNCCCCNCCCNC(=O)Cc1cccc2ccccc12 [Naspm, 1-Naphthylacetyl spermine trihydrochloride]
cue-induced cocaine-seeking (responses on previously active lever) (withdrawal day 1): did not alter | cue-induced cocaine-seeking (responses on previously active lever) (withdrawal day 45): significantly reduced
